The experiment can be described thus: NO generation experiment: compound reacted with H2O2 in the presence of a catalyst, Griess assay. As to conditions: compound 1 mg/ml, PBS pH 5.5, 1 mM H2O2, 37° C., 4 hours. How it is done: Generation of nitric oxide was investigated by reacting the above-described compounds having a structure of
with hydrogen peroxide (H2O2) in the presence of a catalyst. After suspending particles including 1 mg/ml of the compound below and the catalyst in a medium composed of 5 ml of PBS at pH 5.5 and hydrogen peroxide (H2O2) at 1 mM concentration, the suspension was subjected to incubation at 37° C. for 4 hours, followed by sampling the supernatant to analyze the NO generation through Griess assay.
Background: Nitrite, measured by Griess reagent, commonly stands in for NO production.

Consider `N=C(N)NCCC[C@H](NC(=O)OCc1ccccc1)C(=O)O` [Nα-Benzyloxycarbonyl-L-arginine], for which the “Concentration of generated NO” value (catalyst Mn-porphyrin 2 mg/ml) stood at 34 µM and the “Concentration of generated NO” value (catalyst PCN-223-Fe 1 mg/ml) stood at 216 µM.

For the origin of these results see patent US20240325334A1, “COMPOSITION FOR GENERATING NITROGEN MONOXIDE” (SEOUL NATIONAL UNIVERSITY R&DB FOUNDATION, priority 2021, published 2024).
